Assay results from publication PMC6770473, “Proximity ligation assay to study protein–protein interactions of proteins on two different cells” (Biotechniques, 2018).
“Also recorded” adds a separate entry of the source.

B1: CD2: T-cell surface adhesion protein, binding partner of CD58 (protein)
chain: KEITNALETWGALGQDINLDIPSFQMSDDIDDIKWEKTSDKKKIAQFRKEKETFKEKDTYKLFKNGTLKIKHLKTDDQDIYKVSIYDTKGKNVLEKIFDLKIQERVSKPKISWTCINTTLTCEVMNGTDPELNLYQDGKHLKLSQRVITHKWTTSLSAKFKCTAGNKVSKESSVEPVSCPEKGLDIYLIIGICGGGSLLMVFVALLVFYITKRKKQRSRRNDEELETRAHRVATEERGRKPHQIPASTPQNPATSQHPPPPPGHRSQAPSHRPPPPGHRVQHQPQKRPPAPSGTQVHQQKGPPLPRPRVQPKPPHGAAENSLSPSSN

Key:
CD2–CD58 interaction [1] = experiment: Proximity ligation assay (PLA), Jurkat T cells / HFLS-RA cells co-culture; type: cell-based, human; details: for PPI inhibition by BODIPY conjugate (red fluorescence): BODIPY conjugate of SFTI-a, concentration not printed, compared to control without any peptide; for reduction in number of red dots: compared with control, p < 0.001; for PPI inhibition, number of red dots (ImageJ): vs untreated wells, p < 0.0001 (SAS, GLM)
Procedure: (§1) • Both T cells and HFLS-RA cells were grown to 70% confluency. • Approximately 20,000 Jurkat cells were added to each well, and the chamber slides were incubated for 30 min at 37°C with 5% CO2. • Approximately 10,000 HFLS-RA cells were treated with different concentrations of SFTI-a peptide separately for 2 h at 4°C and added over Jurkat cells that were previously coated onto the well chamber slides. • The slides were incubated for 48 h at 37°C with 5% CO2.
• The medium was gently removed from the corners of the wells. • Enough chilled methanol to cover the surface was added to each well for fixing the cells. • After incubating the slides for 15 min at −20°C, the methanol was removed, and PBS was used to hydrate the slides. • The slides were washed once more with PBS. • Two drops of blocking solution was added to each well, and they were incubated for 90 min at room temperature in a moist chamber.
• The blocking solution was removed, and the slides were washed gently with PBS. • The CD58 and CD2 (Santa Cruz Biotechnology) primary antibodies were used at a dilution of […] by diluting with antibody diluent solution provided in kit (2 μl [CD58 Ab] + 2 μl [CD2 Ab] + 196 μl antibody diluent solution per well). • After addition of primary antibody solution, the slides were incubated overnight at 4°C in a moist chamber with gentle shaking.
• The primary antibody solution was removed, and each well was washed very gently with 100 μl of PBS. • The probe solution was prepared using 1:1:4 ratio of positive probe:negative probe:antibody diluent solution, respectively. • After removing PBS, approximately 80 μl of probe solution was added to each well, which were incubated at 37°C for 1 h in a moist chamber.
• The probe solution was discarded, and all wells were washed twice with 100 μl of wash buffer A. • Ligase solution was prepared by mixing together 16 μl of ligation solution + 2 μl of ligase + 62 μl of high purified water. • 80 μl of this freshly prepared ligase solution was added gently to each well, which were incubated at 37°C for 30 min in a moist chamber.
• All procedures from this step forward were carried out in a dark (light-protected) environment. • After removing the ligase solution, the wells were washed gently twice with wash buffer A. • Amplification/polymerase solution was prepared by mixing together 1 μl polymerase + 16 μl amplification (red) solution + 63 μl purified water. • 80 μl of the above solution was added to each well in the dark, and the plates were incubated in a 37°C moist chamber in the dark for 100 min.
• Amplification/polymerase solution was removed from each well, and they were washed gently twice with 120 μl of wash buffer B. • 0.01x wash buffer B (in phosphate-buffered saline [PBS]) was prepared, and each well was washed with this solution. • The well on slides were removed (wells are removed after all the washing step to prepare the slide for microscopic imaging). • Keeping the slide surface slightly wet with 0.01x wash buffer B, a small amount of mounting medium with DAPI solution was added to the slide. • Coverslips were placed over the slides, and images were obtained by using an Olympus Fluoview 1.0 confocal microscope with DAPI and Texas Red filters.
Wash buffers A and B were provided in the kit. The composition of the buffers is not disclosed by the vendor. A bio-protocol by Lin et al. provides the composition of Duolink in situ buffers A and B. The incubation time of 48 h was established by carrying out PLA at 24- and 48-h times.
Control experiments were conducted with HFLS-RA cells and T cells without addition of primary antibodies to CD2 and CD58 but with addition of secondary antibodies and PLA probes. Experiments were performed as described in steps 1–7 above.
Experiments with HFLS-RA cells and T cells were carried out as described above by adding primary and secondary antibodies only to CD58 and with PLA probes. […]

[2] = tested on: CD58 on the cell surface of HFLS-RA cells; experiment: Binding of SFTI-a BODIPY conjugate to HFLS-RA cells (fluorescence microscopy); type: cell-based, human; details: green fluorescence of BODIPY, Mg+ green filter (excitation 507, emission 531), 60x, concentration not given
Procedure: Synthesis of cyclic peptide SFTI-a, Cyclo(CKASAPPSCYDGDD), was carried out in three major steps: 1) Linear sequence synthesis with an automatic peptide synthesizer (Protein Technologies, Inc., AZ, USA); 2) head-to-tail cyclization; and 3) disulfide bond formation. For fluorescent labeling of peptide SFTI-a, Lys in the peptide sequence was replaced with Lys containing an azide side chain. The azide side chain was used to conjugate fluorescent label 4,4-difluoro-4-bora-3a,4a-diaza-s-indacene (BODIPY), resulting in the conjugate Cyclo(CK-(BODIPY)-ASAPPSCYDGDD). The detailed procedure for synthesis of the peptide is described in our previous work. Peptides SFTI-a and SFTI-a with lysine azide (N3) and fluorescence-labeled SFTI-a were purified by preparative HPLC (Waters Corp., MA, USA) using acetonitrile and water containing 0.1% TFA. Molecular weights of the synthesized peptide and the conjugate were confirmed by mass spectrometry. BODIPY was obtained from Dr Vicente, Department of Chemistry, Louisiana State University, LA, USA.
as §1
The microscopic visualization was carried out on an Olympus Fluoview FV10i confocal microscope. DAPI (excitation 359, emission 461) and Texas Red (excitation 595, emission 612) filters were used for detection purposes at 60x zoom. For SFTI-a BODIPY conjugate, a Mg+ green (excitation 507, emission 531) filter was used. Different images were taken from each well containing different concentrations of SFTI-a and cells only. All images were taken in a single plane and at 60x magnification.

CD2–CD58 interaction [3] = details: cited from earlier work
Description: (§2) In almost all physiological processes, the medium for communication between two cells is facilitated by the interaction of proteins. The up- or down-regulation of proteins and the deregulated interaction of these proteins usually lead to disease conditions. Rational drug designs targeting these protein–protein interactions (PPI) have gained much popularity in the past decade. […] Many proteins interact at the cell surface to send signals inside the cell from the extracellular region, and PPI on the cell surface are targ ...

CD58 protein = details: cited from earlier work
Description: as §2

[4] = tested on: cell adhesion in the immune response; details: cell-based in vitro and ex vivo assays; cited from earlier work
Description: as §2

CD58 adhesion domain = details: relatively weak but highly specific interaction; background statement, reference printed only at the preceding sentence; read-out: Kd of CD2–CD58 interaction; cited from earlier work
Description: as §2

[5] = listed as BODIPY conjugate of SFTI-a

Molecule | PPI inhibition by BODIPY conjugate (red fluorescence) (CD2–CD58 interaction [1]) | PPI inhibition by BODIPY conjugate (red fluorescence) (CD2–CD58 interaction [1]; [5]) | binding to CD58 on HFLS-RA cell surface [2] | binding to CD58 on HFLS-RA cell surface [2, 5] | reduction in number of red dots (CD2–CD58 interaction [1]; 50 nM SFTI-a) | reduction in number of red dots (CD2–CD58 interaction [1]; 250 nM SFTI-a) | PPI inhibition, number of red dots (ImageJ) (CD2–CD58 interaction [1]; 10 μM SFTI-a) | PPI inhibition, number of red dots (ImageJ) (CD2–CD58 interaction [1]; 50 μM SFTI-a) | decrease in red dots (CD2–CD58 PPI inhibition) (CD2–CD58 interaction [1]; 100 μM SFTI-a, HFLS-RA cells treated 2 h at 4°C, added over Jurkat cells, 48 h at 37°C, confocal microscopy 60x, vs cells without peptide) | PPI inhibition, number of red dots (ImageJ) (CD2–CD58 interaction [1]; 100 μM SFTI-a) | PPI inhibition at different concentrations (dose dependence) (CD2–CD58 interaction [1]; different concentrations of SFTI-a (50 nM, 250 nM, 1 μM, 10 μM, 50 μM, 100 μM), HFLS-RA cells treated 2 h at 4°C, co-culture with Jurkat cells 48 h at 37°C, red dots) | inhibition of CD2–CD58 interaction (CD2–CD58 interaction [3]) | binding to CD58 (CD58 protein) | inhibition of cell adhesion in the immune response, suppression of T-cell immune response [4] | Kd (CD58 adhesion domain)
Cyclo(CK-(BODIPY)-ASAPPSCYDGDD) (bicyclic or more) [SFTI-a conjugate, fluorescently labeled peptide with BODIPY attachment via azide side chain of Lys] | inhibit the interaction between Jurkat cells and HFLS-RA cells | able to inhibit PPI as shown by a decrease in red fluorescence compared to control | bound to the cell surface of HFLS-RA cells as shown by green fluorescence of BODIPY | green fluorescence on HFLS-RA cells due to binding of a conjugate of SFTI-a to CD58 on cells |  |  |  |  |  |  |  |  |  |  | 
Cyclo(CKASAPPSCYDGDD) (bicyclic or more) [SFTI-a] |  |  | bind to CD58 on the cell surface |  | significant reduction in a number of red dots | significant reduction in a number of red dots | significant in comparison with that of untreated wells | significant in comparison with that of untreated wells | significant decrease in red dots; also recorded: decrease in the number of red dots | significant in comparison with that of untreated wells | significant decrease in bright red spots; also recorded: dose-dependent inhibition of the interaction between CD2 and CD58 proteins | inhibits CD2–CD58 interaction | binds to the CD58 protein | potent compound for inhibiting cell adhesion in the immune response | 
B1 |  |  |  |  |  |  |  |  |  |  |  |  |  |  | 1 to 10 µM
